Measured values from ChEMBL document CHEMBL4813944 (Eur J Med Chem, 2021).
The source made the active and inactive calls. The calls are words filed in the database; no cut-off is given here.

How the values were obtained:
[1] = Cytotoxicity against human SH-SY5Y cells assessed as cell viability at 0.1 uM measured after 24 hrs by calcein-AM staining based fluorescence analysis; settings: read-out: Activity
[2] = Cytotoxicity against human SH-SY5Y cells assessed as cell viability at 1 uM measured after 24 hrs by calcein-AM staining based fluorescence analysis; settings: read-out: Activity
[3] = Cytotoxicity against human SH-SY5Y cells assessed as cell viability at 10 uM measured after 24 hrs by calcein-AM staining based fluorescence analysis; settings: read-out: Activity
[4] = test system: SH-SY5Y; assay: Neuroprotective activity against salsolinol-induced neurotoxicity in human SH-SY5Y cells assessed as cell viability at 1 uM measured after 24 hrs by calcein-AM staining based fluorescence analysis (reference value: 70.49 +/-0.51%); type: functional; settings: read-out: Activity
[5] = test system: SH-SY5Y; assay: Neuroprotective activity against salsolinol-induced neurotoxicity in human SH-SY5Y cells assessed as cell death at 10 uM measured after 24 hrs by PI staining based analysis (reference value: 100%); type: functional
[6] = test system: SH-SY5Y; assay: Inhibition of Salsolinol-induced oxidative stress in human SH-SY5Y cells assessed as superoxide radical formation at 1 uM measured after 24 hrs by DHE staining based fluorescence spectrophotometry (reference value: 100%); type: functional; parameters: scale not given: the % may be the effect or the level left
[7] = test system: SH-SY5Y; assay: Inhibition of salsolinol-induced apoptosis in human SH-SY5Y cells assessed as caspase 3/7 activity at 1 uM incubated for 24 hrs using Ac-DEVD-AMC as substrate by fluorescence analysis (reference value: 100%); type: functional; parameters: scale not given: the % may be the effect or the level left
[8] = test system: SH-SY5Y; assay: Inhibition of salsolinol-induced apoptosis in human SH-SY5Y cells assessed as caspase 3/7 activity at 10 uM incubated for 24 hrs using Ac-DEVD-AMC as substrate by fluorescence analysis (reference value: 100%); type: functional; parameters: scale not given: the % may be the effect or the level left
[9] = Inhibition of salsolinol-induced mitochondrial depolarization in human SH-SY5Y cells assessed as mitochondrial membrane potential at 10 uM measured after 24 hrs by JC-1 staining based flow cytometry (reference value: 45.3 +/-2.09%); type: functional; parameters: scale not given: the % may be the effect or the level left
[10] = Inhibition of salsolinol-induced mPTP opening in human SH-SY5Y cells assessed as fold change in fluorescence intensity at 1 uM measured after 24 hrs by calcein AM/CoCl2 based fluorescence microscopic analysis (reference value: 0.49 +/-0.02); type: functional
[11] = Inhibition of salsolinol-induced mPTP opening in human SH-SY5Y cells assessed as fold change in fluorescence intensity at 10 uM measured after 24 hrs by calcein AM/CoCl2 based fluorescence microscopic analysis (reference value: 0.49 +/-0.02); type: functional
[12] = test system: SH-SY5Y; assay: Inhibition of salsolinol-induced apoptosis in human SH-SY5Y cells assessed as appearance of necrotic cells along with early and late apoptotic cells at 10 uM measured after 24 hrs by AO/PIstaining based fluorescence microscopy; type: functional, cell-based
[13] = test system: SH-SY5Y; assay: Neuroprotective activity against glutamate-induced neurotoxicity in human SH-SY5Y cells assessed as cell death at 10 uM measured after 24 hrs by PI staining based assay (reference value: 100%); type: functional
[14] = test system: SH-SY5Y; assay: Inhibition of glutamate-induced oxidative stress in human SH-SY5Y cells assessed as superoxide radical formation at 10 uM measured after 4 hrs by DHE staining based fluorescence spectrophotometry (reference value: 100%); type: functional; parameters: scale not given: the % may be the effect or the level left
[15] = test system: SH-SY5Y; assay: Inhibition of glutamate-induced apoptosis in human SH-SY5Y cells assessed as caspase 3/7 activity at 10 uM incubated for 1 hr using Ac-DEVD-AMC as substrate by fluorescence analysis (reference value: 100%); type: functional; parameters: scale not given: the % may be the effect or the level left
[16] = Inhibition of glutamate-induced mitochondrial depolarization in human SH-SY5Y cells assessed as mitochondrial membrane potential at 10 uM incubated for 1 hr by JC10 dye based fluorescence analysis (reference value: 31.2 +/-4.6%); type: functional; parameters: scale not given: the % may be the effect or the level left
[17] = test system: SH-SY5Y; assay: Inhibition of Salsolinol-induced oxidative stress in human SH-SY5Y cells assessed as superoxide radical formation at 10 uM measured after 24 hrs by DHE staining based fluorescence spectrophotometry (reference value: 100%); type: functional; parameters: scale not given: the % may be the effect or the level left
[18] = test system: SH-SY5Y; assay: Inhibition of Salsolinol-induced oxidative stress in human SH-SY5Y cells assessed as reduction in superoxide radical formation at 1 uM measured after 24 hrs by DHE staining based fluorescence microscopy; type: functional, cell-based
[19] = test system: SH-SY5Y; assay: Inhibition of salsolinol-induced mitochondrial depolarization in human SH-SY5Y cells assessed as recovery of mitochondrial membrane potential measured after 24 hrs by JC-1 staining based flow cytometry; type: functional, cell-based
[20] = test system: SH-SY5Y; assay: Neuroprotective activity against glutamate-induced neurotoxicity in human SH-SY5Y cells assessed as reduction in cell death at 0.1 to 1 uM measured after 24 hrs by PI staining based assay; type: functional; settings: dose 0.1-1 µM
[21] = test system: SH-SY5Y; assay: Neuroprotective activity against salsolinol-induced neurotoxicity in human SH-SY5Y cells assessed as reduction in cell death at 0.1 to 10 uM measured after 24 hrs by PI staining based analysis; type: functional; settings: dose 0.1-10 µM
[22] = test system: SH-SY5Y; assay: Neuroprotective activity against salsolinol-induced neurotoxicity in human SH-SY5Y cells assessed as cell viability at 100 uM measured after 24 hrs by calcein-AM staining based fluorescence analysis (reference value: 70.49 +/-0.51%); type: functional; settings: read-out: Activity
[23] = test system: SH-SY5Y; assay: Neuroprotective activity against salsolinol-induced neurotoxicity in human SH-SY5Y cells assessed as cell viability at 1000 uM measured after 24 hrs by calcein-AM staining based fluorescence analysis (reference value: 70.49 +/-0.51%); type: functional; settings: read-out: Activity
[24] = test system: SH-SY5Y; assay: Neuroprotective activity against salsolinol-induced neurotoxicity in human SH-SY5Y cells assessed as cell death at 100 uM measured after 24 hrs by PI staining based analysis (reference value: 100%); type: functional
[25] = test system: SH-SY5Y; assay: Neuroprotective activity against salsolinol-induced neurotoxicity in human SH-SY5Y cells assessed as cell death at 1000 uM measured after 24 hrs by PI staining based analysis (reference value: 100%); type: functional
[26] = test system: SH-SY5Y; assay: Inhibition of Salsolinol-induced oxidative stress in human SH-SY5Y cells assessed as superoxide radical formation at 1000 uM measured after 24 hrs by DHE staining based fluorescence spectrophotometry (reference value: 100%); type: functional; parameters: scale not given: the % may be the effect or the level left
[27] = Cytotoxicity against human SH-SY5Y cells assessed as cell viability at 100 uM measured after 24 hrs by calcein-AM staining based fluorescence analysis; settings: read-out: Activity
[28] = Cytotoxicity against human SH-SY5Y cells assessed as cell viability at 1000 uM measured after 24 hrs by calcein-AM staining based fluorescence analysis; settings: read-out: Activity
[29] = test system: SH-SY5Y; assay: Inhibition of Salsolinol-induced oxidative stress in human SH-SY5Y cells assessed as reduction in superoxide radical formation measured after 24 hrs by DHE staining based fluorescence spectrophotometry; type: functional, cell-based; settings: dose 10-1000 µM
[30] = test system: SH-SY5Y; assay: Inhibition of Salsolinol-induced oxidative stress in human SH-SY5Y cells assessed as reduction in superoxide radical formation at 1000 uM measured after 24 hrs by DHE staining based fluorescence microscopy; type: functional, cell-based
[31] = test system: SH-SY5Y; assay: Inhibition of salsolinol-induced apoptosis in human SH-SY5Y cells assessed as caspase 3/7 activity at 1000 uM incubated for 24 hrs using Ac-DEVD-AMC as substrate by fluorescence analysis (reference value: 100%); type: functional; parameters: scale not given: the % may be the effect or the level left
[32] = Inhibition of salsolinol-induced mitochondrial depolarization in human SH-SY5Y cells assessed as mitochondrial membrane potential at 100 uM measured after 24 hrs by JC-1 staining based flow cytometry (reference value: 45.3 +/-2.09%); type: functional; parameters: scale not given: the % may be the effect or the level left
[33] = Inhibition of salsolinol-induced mitochondrial depolarization in human SH-SY5Y cells assessed as mitochondrial membrane potential at 1000 uM measured after 24 hrs by JC-1 staining based flow cytometry (reference value: 45.3 +/-2.09%); type: functional; parameters: scale not given: the % may be the effect or the level left
[34] = Inhibition of salsolinol-induced mPTP opening in human SH-SY5Y cells assessed as fold change in fluorescence intensity at 1000 uM measured after 24 hrs by calcein AM/CoCl2 based fluorescence microscopic analysis (reference value: 0.49 +/-0.02); type: functional
[35] = test system: SH-SY5Y; assay: Inhibition of salsolinol-induced apoptosis in human SH-SY5Y cells assessed as appearance of necrotic cells along with early and late apoptotic cells at 1000 uM measured after 24 hrs by AO/PIstaining based fluorescence microscopy; type: functional, cell-based

## C=C(C(=O)OCc1cn([C@@H]2O[C@H](COC(C)=O)[C@@H](OC(C)=O)[C@H](OC(C)=O)[C@H]2OC(C)=O)nn1)[C@@H]1CC[C@]2(COC(C)=O)CC[C@]3(C)[C@H](CC[C@@H]4[C@@]5(C)CC[C@H](OC(C)=O)C(C)(C)[C@@H]5CC[C@]43C)[C@@H]12
[1]
  viability at 24 h, 0.1 µM: 115%
[2]
  viability at 24 h, 1 µM: 138%
[3]
  viability at 24 h, 10 µM: 128%
[4]
  viability at 1 µM: 91.7%
[5]
  Activity: 62.6%
[6]
  Activity: 74.5%
[7]
  Activity: 81.8%
[8]
  Activity: 79.5%
[9]
  Activity: 89.2%
[10]
  fold change (FC): 0.75
[11]
  fold change (FC): 1.2
[12]
  Activity: Active
[13]
  Activity: 75.1%
[14]
  Activity: 82.2%
[15]
  Activity: 90.9%
[16]
  Activity: 74.7%
[17]
  Activity: 77.2%
[18]
  inhibition: Active
[19]
  inhibition: Dose-Dependent Effect
[20]
  Activity: Active

## C=C(Cn1cc(-c2cccnc2)nn1)[C@@H]1CC[C@]2(C(=O)O)CC[C@]3(C)[C@H](CC[C@@H]4[C@@]5(C)CC[C@H](O)C(C)(C)[C@@H]5CC[C@]43C)[C@@H]12
[1]
  viability at 24 h, 0.1 µM: 103%
[2]
  viability at 24 h, 1 µM: 116%
[3]
  viability at 24 h, 10 µM: 133%
[4]
  viability at 1 µM: 81.7%
[21]
  Activity: inactive

## CC1(C)CC[C@]23CC[C@]4(C)[C@H](CC[C@@H]5[C@@]6(C)CC(C#N)=C(O)C(C)(C)[C@@H]6CC[C@]54C)[C@H]2[C@H]1OC3
[1]
  viability at 24 h, 0.1 µM: 93.1%
[2]
  viability at 24 h, 1 µM: 93.8%
[3]
  viability at 24 h, 10 µM: 98.8%

## C=C(C)[C@@H]1CC[C@]2(C(=O)O)CC[C@]3(C)[C@H](C=C[C@@H]4[C@@]5(C)Cc6sc(N7CCOCC7)nc6C(C)(C)[C@@H]5CC[C@]43C)[C@@H]12
[1]
  viability at 24 h, 0.1 µM: 91.3%
[2]
  viability at 24 h, 1 µM: 90%
[3]
  viability at 24 h, 10 µM: 87%

## C=C(C(=O)OCc1cn([C@@H]2O[C@H](COC(C)=O)[C@H](OC(C)=O)[C@H](OC(C)=O)[C@H]2OC(C)=O)nn1)[C@@H]1CC[C@]2(COC(C)=O)CC[C@]3(C)[C@H](CC[C@@H]4[C@@]5(C)CC[C@H](OC(C)=O)C(C)(C)[C@@H]5CC[C@]43C)[C@@H]12
[1]
  viability at 24 h, 0.1 µM: 140%
[2]
  viability at 24 h, 1 µM: 139%
[3]
  viability at 24 h, 10 µM: 130%
[4]
  viability at 1 µM: 90.9%
[5]
  Activity: 68.7%

## CC(=O)N[C@@H](CS)C(=O)O [ACETYLCYSTEINE]
[3]
  viability at 24 h, 10 µM: 108%
[22]
  viability at 100 µM: 82.3%
[23]
  viability at 1000 µM: 89%
[24]
  Activity: 72.5%
[25]
  Activity: 68.2%
[26]
  Activity: 53.8%
[27]
  viability at 24 h, 100 µM: 114%
[28]
  viability at 24 h, 1000 µM: 120%
[29]
  inhibition: Dose-Dependent Effect
[30]
  inhibition: Active
[31]
  Activity: 79.3%
[32]
  Activity: 66.4%
[33]
  Activity: 69.7%
[34]
  fold change (FC): 0.76
[35]
  Activity: Active
